Measurements as given in US8044100B2, “Methods and compositions for treating amyloid-related diseases” (Bellus Health Inc., priority 2004, dated 2011).

Tested on: Aβ peptides (Aβ40, Aβ42) in the plasma and brain of TgCRND8 mice
Assay: Long term treatment (8 or 16 weeks) in TgCRND8 mice: Aβ levels in plasma and brain
Type: in vivo, mouse
Conditions: for Brain Abeta40 insoluble / Brain Abeta40 soluble / Brain Abeta42 insoluble / Brain Abeta42 soluble / Plasma Abeta40 / Plasma Abeta42: BX subcutaneous, BW and BZ oral
Experimental: The long-term therapeutic effects of compounds of the present invention on cerebral amyloid deposition and β-amyloid (Aβ) levels in the plasma and in the brains of transgenic mice, TgCRND8, expressing the human amyloid precursor protein (hAPP) was studied. These compounds were administered over an 8 or 16 week period at the end of which the levels of Aβ peptides in the plasma and brain of TgCRND8 animals were determined. The goal of this study was to evaluate the efficacy of the compounds at modulating the progression of the amyloidogenic process in the brain and in the plasma of a transgenic mouse model of Alzheimer's disease (AD)
The mice used in the study consisted of animals bearing one copy of the hAPP gene (+/−) from the 2nd and 3rd generation progenies (N2 and N3) derived from backcrosses from TgCRND8.FVB(N2)AJ(N3) with B6AF1/J hybrid animals. • N1=TgCRND8.FVB(N2)AJ(N3)×B6AF1/J • N2=TgCRND8.FVB(N2)AJ(N3).B6AF1/J(N1)×B6AF1/J • N3=TgCRND8.FVB(N2)AJ(N3).B6AF1/J(N2)×B6AF1/J
The following abbreviations are used to designate these animals in the present study: TgCRND8.B6AF1/J(N2); TgCRND8.B6AF1/J(N3). Male and female transgenic mice were given daily subcutaneous (compound BX) or oral (compounds BW and BZ) administrations of the appropriate compounds for 8 or 16 weeks.
Baseline animals consisted of 9±1 week old naive TgCRND8.B6AF1/J animals from the 2nd and 3rd generations. These mice were used to determine the extent of cerebral amyloid deposits and Aβ levels in the plasma and brain of naive transgenic animals at the initiation of treatment.
Starting at 9 weeks of age (+1 week) animals received daily administration of their respective treatment for a period of 8 or 16 weeks, at a dose of 30 or 100 mg/kg at 10 ml/kg. The route of administration was subcutaneous for water-soluble compounds (Compound BX) and oral for compounds solubilized in methylcellulose 1% (MC 1%) (Compounds BW and BZ). At the end of the treatment periods, plasma and perfused brains were collected for quantification of Aβ levels.
Animal health was monitored, samples were collected and Aβ levels were measured as described above in the short term treatment study. Compounds were scored based on their ability to modulate levels of Aβ peptides in the plasma and the cerebral soluble/insoluble levels in the brain. Levels of Aβ observed in the plasma and brain of treated animals were compared to that of vehicle-treated (water) or methylcellulose-treated control groups and ranked according to the strength of the pharmacological effect. Increases in the levels of Aβ peptides are indicated using “+” symbols, while decreases in the levels of Aβ peptides are indicated using “−” symbols. The strongest effects are recorded as “+++” or “−−−” while the weakest are shown as “+” or “−”.
Specifically, increases in the levels of Aβ (relative to vehicle treated control) of 5 to 14% are scored as “+”; increases of 15 to 29% are scored as “++”; and increases of 30% or higher are scored as “+++”. Decreases in the levels of Aβ of 5 to 14% are scored as “−”; decreases of 15 to 29% are scored as “−−”; and decreases of 30% or more are scored as “−−−”. Additionally, changes of 4% or less in either direction are scored as “0”.

Row | SMILES | Brain Abeta40 insoluble (30 mg/kg daily, 8 wks) | Brain Abeta40 soluble (30 mg/kg daily, 8 wks) | Brain Abeta42 insoluble (30 mg/kg daily, 8 wks) | Brain Abeta42 soluble (30 mg/kg daily, 8 wks) | Plasma Abeta40 (30 mg/kg daily, 8 wks) | Plasma Abeta42 (30 mg/kg daily, 8 wks) | Brain Abeta40 insoluble (30 mg/kg daily, 16 wks) | Brain Abeta40 soluble (30 mg/kg daily, 16 wks) | Brain Abeta42 insoluble (30 mg/kg daily, 16 wks) | Brain Abeta42 soluble (30 mg/kg daily, 16 wks) | Plasma Abeta40 (30 mg/kg daily, 16 wks) | Plasma Abeta42 (30 mg/kg daily, 16 wks) | Brain Abeta40 insoluble (100 mg/kg daily, 8 wks) | Brain Abeta40 soluble (100 mg/kg daily, 8 wks) | Brain Abeta42 insoluble (100 mg/kg daily, 8 wks) | Brain Abeta42 soluble (100 mg/kg daily, 8 wks) | Plasma Abeta40 (100 mg/kg daily, 8 wks) | Plasma Abeta42 (100 mg/kg daily, 8 wks) | Brain Abeta40 insoluble (100 mg/kg daily, 16 wks) | Brain Abeta40 soluble (100 mg/kg daily, 16 wks) | also measured
1 | O=S(=O)(O)CCCNC12CC3CC(CC(C3)C1)C2 [BW] | −− (decreases of 15 to 29%) | − (Decreases in the levels of Aβ of 5 to 14%) | 0 (changes of 4% or less in either direction) | −− (decreases of 15 to 29%) | −−− (decreases of 30% or more) | −−− (decreases of 30% or more) | ++ (increases of 15 to 29%) | + (increases in the levels of Aβ (relative to vehicle treated control) of 5 to 14%) | + (increases in the levels of Aβ (relative to vehicle treated control) of 5 to 14%) | − (Decreases in the levels of Aβ of 5 to 14%) | −− (decreases of 15 to 29%) | −− (decreases of 15 to 29%) | −−− (decreases of 30% or more) | −− (decreases of 15 to 29%) | −−− (decreases of 30% or more) | −− (decreases of 15 to 29%) | − (Decreases in the levels of Aβ of 5 to 14%) | − (Decreases in the levels of Aβ of 5 to 14%) | + (increases in the levels of Aβ (relative to vehicle treated control) of 5 to 14%) | ++ (increases of 15 to 29%) | Brain Abeta42 insoluble (100 mg/kg daily, 16 wks): ++ (increases of 15 to 29%); Brain Abeta42 soluble (100 mg/kg daily, 16 wks): + (increases in the levels of Aβ (relative to vehicle treated control) of 5 to 14%); Plasma Abeta40 (100 mg/kg daily, 16 wks): − (Decreases in the levels of Aβ of 5 to 14%); Plasma Abeta42 (100 mg/kg daily, 16 wks): − (Decreases in the levels of Aβ of 5 to 14%); brain and plasma levels of Aβ (at 8 weeks): dramatic decrease; plasma levels of Aβ (at 16 weeks): dramatic decrease
2 | CC(C)(C)NCCCS(=O)(=O)O [BX, 3-(t-butyl)amino-1-propanesulfonic acid] | −−− (decreases of 30% or more) | −−− (decreases of 30% or more) | −− (decreases of 15 to 29%) | −−− (decreases of 30% or more) | + (increases in the levels of Aβ (relative to vehicle treated control) of 5 to 14%) | + (increases in the levels of Aβ (relative to vehicle treated control) of 5 to 14%) | −−− (decreases of 30% or more) | −− (decreases of 15 to 29%) | − (Decreases in the levels of Aβ of 5 to 14%) | 0 (changes of 4% or less in either direction) | − (Decreases in the levels of Aβ of 5 to 14%) | − (Decreases in the levels of Aβ of 5 to 14%) | ++ (increases of 15 to 29%) | + (increases in the levels of Aβ (relative to vehicle treated control) of 5 to 14%) | 0 (changes of 4% or less in either direction) | + (increases in the levels of Aβ (relative to vehicle treated control) of 5 to 14%) | ++ (increases of 15 to 29%) | +++ (increases of 30% or higher) | −−− (decreases of 30% or more) | − (Decreases in the levels of Aβ of 5 to 14%) | Brain Abeta42 insoluble (100 mg/kg daily, 16 wks): −− (decreases of 15 to 29%); Brain Abeta42 soluble (100 mg/kg daily, 16 wks): 0 (changes of 4% or less in either direction); Plasma Abeta40 (100 mg/kg daily, 16 wks): − (Decreases in the levels of Aβ of 5 to 14%); Plasma Abeta42 (100 mg/kg daily, 16 wks): 0 (changes of 4% or less in either direction); amount of Aβ in the brain (at both 8 and 16 weeks): dramatic decrease
